Data on 12 compounds can be found in patent US11014911B2, “CDK2 inhibitors” (Pfizer Inc., priority 2019, dated 2021).

Each structure is given as a SMILES string.

The experiment has as its target CDK2/Cyclin E1 full length (Homo sapiens (Human), UniProt P24941). Nature of the experiment: CDK2/Cyclin E1 full length mobility shift assay. Type of experiment: biochemical.
For `CCCNC(=O)O[C@H]1CC[C@@H](c2cc(NC(=O)Cc3cn4c(C)csc4n3)n[nH]2)C1` [Example 199, (1S,3R)-3-(3-{[(3-methylimidazo[2,1-b][1,3]thiazol-6-yl)acetyl]amino}-1H-pyrazol-5-yl)cyclopentyl propylcarbamate], the Ki came to 3.45 nM. With `CCCNC(=O)O[C@H]1CC[C@@H](c2cc(NC(=O)Cc3cn4c(C)c(C)sc4n3)n[nH]2)C1` [Example 200, (1S,3R)-3-(3-{[(2,3-dimethylimidazo[2,1-b][1,3]thiazol-6-yl)acetyl]amino}-1H-pyrazol-5-yl)cyclopentyl propylcarbamate] the figure was 2.87 nM.

As for `CCCNC(=O)O[C@@H]1CC[C@H](c2cc(NC(=O)Cc3ccccc3S(N)(=O)=O)n[nH]2)C1` [Example 204, (1R,3S)-3-(3-{[(2-sulfamoylphenyl)acetyl]-amino}-1H-pyrazol-5-yl)cyclopentyl propylcarbamate], the Ki is 1.13 nM. On to `CCCNC(=O)O[C@@H]1CC[C@H](c2cc(NC(=O)Cc3ccc(C)cc3S(C)(=O)=O)n[nH]2)C1` [Example 207, (1R,3S)-3-[3-({[4-methyl-2-(methylsulfonyl)phenyl]acetyl}amino)-1H-pyrazol-5-yl]cyclopentyl propylcarbamate], for which the Ki is 0.66 nM.

As to `CCCNC(=O)O[C@@H]1CC[C@H](c2cc(NC(=O)Cc3cc(C)ncc3S(C)(=O)=O)n[nH]2)C1` [Example 208, (1R,3S)-3-[3-({[2-methyl-5-(methylsulfonyl)pyridin-4-yl]acetyl}amino)-1H-pyrazol-5-yl]cyclopentyl propylcarbamate], the Ki is 3.18 nM. For the compound `CCCNC(=O)O[C@@H]1CC[C@H](c2cc(NC(=O)Cc3ccccc3S(=O)(=O)NC)n[nH]2)C1` [Example 209, (1R,3S)-3-[3-({[2-(methylsulfamoyl)-phenyl]acetyl}amino)-1H-pyrazol-5-yl]cyclopentyl propylcarbamate], the Ki came to 1.21 nM. `CCCNC(=O)O[C@@H]1CC[C@H](c2cc(NC(=O)Cc3ccccc3S(=O)(=O)C3CC3)n[nH]2)C1` [Example 210, (1R,3S)-3-[3-({[2-(cyclopropylsulfonyl)-phenyl]acetyl}amino)-1H-pyrazol-5-yl]cyclopentyl propylcarbamate]: the Ki was 3.8 nM. With `CCCNC(=O)O[C@@H]1CC[C@H](c2cc(NC(=O)Cc3ccccc3S(=O)(=O)C(C)C)n[nH]2)C1` [Example 211, (1R,3S)-3-[3-({[2-(propan-2-ylsulfonyl)phenyl]acetyl}amino)-1H-pyrazol-5-yl]cyclopentyl propylcarbamate] the figure was 4.87 nM. With `CCCNC(=O)O[C@@H]1CC[C@H](c2cc(NC(=O)Cc3ccc(COC)cc3S(C)(=O)=O)[nH]n2)C1` [Example 215, (1R,3S)-3-[5-({[4-(methoxymethyl)-2-(methylsulfonyl)phenyl]acetyl}amino)-1H-pyrazol-3-yl]cyclopentyl propylcarbamate] the figure was 1.26 nM; with `Cn1ncc(CC(=O)Nc2cc([C@H]3CC[C@@H](OC(=O)NCCC(F)(F)F)C3)[nH]n2)n1` [Example 217, (1R,3S)-3-(3-{[(2-methyl-2H-1,2,3-triazol-4-yl)acetyl]amino}-1H-pyrazol-5-yl)cyclopentyl (3,3,3-trifluoropropyl)carbamate], 2.22 nM; with `O=C(Cc1nccs1)Nc1cc([C@H]2CC[C@@H](OC(=O)NCCC(F)(F)F)C2)[nH]n1` [Example 219, (1R,3S)-3-{3-[(1,3-thiazol-2-ylacetyl)amino]-1H-pyrazol-5-yl}cyclopentyl (3,3,3-trifluoropropyl)carbamate], 3.81 nM.

On to `Cc1cnc(CC(=O)Nc2cc([C@H]3CC[C@@H](OC(=O)NCCC(F)(F)F)C3)[nH]n2)cn1` [Example 220, (1R,3S)-3-(3-{[(5-methylpyrazin-2-yl)acetyl]amino}-1H-pyrazol-5-yl)cyclopentyl (3,3,3-trifluoropropyl)carbamate], for which the Ki amounted to 3.26 nM.

Broadly, the Ki is the dissociation constant of the complex between target and ligand, obtained from inhibition or displacement.
